Measured values from US9345694B2, “Compounds for enhancing arginase activity and methods of using same” (Cornell Research Foundation, Inc., priority 2006, dated 2016).

Experiments:
[1] = test system: myelin-associated glycoprotein (MAG) inhibition in P7 rat cerebellar neurons; experiment: MAG inhibition analysis, neurite outgrowth of P7 rat cerebellar neurons on MAG-overexpressing CHO cells, post-treatment; type: cell-based; conditions: 10 nM and 40 nM, 24 h in culture, CHO-MAG vs control CHO cells
Method: Compounds were tested for their ability to overcome myelin-associated glycoprotein (MAG) inhibition in P7 rat cerebellar neurons.
In experiments performed in the Roman Giger laboratory at the University of Rochester School of Medicine and Dentistry, twelve compounds were tested, using the materials and methods described by Venkatesh, et al., J Neurosci.
The twelve compounds were tested in two different dilutions (10 nM and 40 nM final concentration).
MAG-overexpressing CHO cells and control CHO feeder layers were used in the assay. All experiments were done with Percoll purified P7 rat cerebellar neurons. The twelve compounds were tested in a “post-treatment” manner. Post-treatment refers to administering the compounds after the neurons were plated.
After 24 h in culture, cells were fixed and stained with TuJ1 (cells with neurites longer than 1 cell body diameter were quantified). Untreated cells (first column of FIGS. 11 and 12) and DMSO only (second column of FIGS. 11 and 12) were used as a negative controls. RHO-kinase inhibitor Y27632 (15 microM) (third column of FIGS. 11 and 12) was used as a positive control. All experiments have been repeated 3-5 times independently.
In FIGS. 11 and 12, there are two bars for each compound tested.

Arginase I protein [2] = conditions: Cai et al., cited from earlier work
[3] = test system: myelin-associated glycoprotein (MAG) inhibition in p5 rat cerebellar neurons; experiment: MAG inhibition analysis, neurite outgrowth of p5 rat cerebellar neurons on MAG-expressing CHO cells, direct addition or priming; type: cell-based; conditions: priming overnight at 20 μM, then plated on MAG-expressing CHO cells
Method: Compounds were tested for their ability to overcome myelin-associated glycoprotein (MAG) inhibition in primary rat neurons. […] In a first experiment, the twelve compounds were tested for their ability to overcome inhibition by MAG in culture. The compounds were tested for their ability to inhibit neurite outgrowth of MAG-expressing CHO cells. Cerebellar neurons were cultured on MAG-expressing CHO cells and neurite length is compared to neurons growing on control CHO cells, not expressing MAG. The cells were assessed for their ability to overcome MAG inhibition when added directly to the cultures at a range of concentrations from 2-20 μM. Neurons were plated at a density of about 10,000 neurons per well of an 8-well culture dish containing a monolayer of either MAG-expressing or control CHO cells. The co-cultures were, incubated for 16-18 h and then immunostained for βIII tubulin. Neurite outgrowth was quantified as previously described (Mukhopadhyay et al., 1994). […] At least 400 neurons were measured in each assay and the experiment was carried out at least twice.

Arginase I protein [4] = experiment: Western blotting and immunostaining for Arginase I protein in treated neurons; type: cell-based, rat; conditions: neurons treated at 20 μM for 18 hours
Method: FIG. 15. Western blot and immunostaining results for arginase I protein. Neurons were treated with, daidzein (20 μM), methoxyvone (5 μM) or lanzoprazole (20 μM) for 18 hours and were then lysed and subjected to gel electrophoresis, followed by western blotting and immunostaining for Arginase I protein. As a positive control, neurons were treated with 1 mM db cAMP.
In a second experiment, the twelve compounds were tested for their ability to upregulate arginase I protein. Neurons were treated with, daidzein (20 μM), methoxyvone (5 μM) or lanzoprazole (20 μM) for 18 hours and were then lysed and subjected to gel electrophoresis, followed by western blotting and immunostaining for Arginase I protein. As a positive control, neurons were treated with 1 mM db cAMP (FIG. 15). Db-cAMP was previously shown to increased Arginase I protein 3-fold as described by Cai, et a., Neuron. 2002 Aug. 15; 35(4):711-9.

SMILES	effect on releasing MAG inhibition [1]	further results
COc1cc(OC)c2c(=O)c(-c3ccc4c(c3)OCO4)coc2c1 [Derrustone]	no effect	–
CC(=O)Nc1ccc(O)cc1 [Acetaminophen, reference compound]	no effect	–
COC(=O)Nc1nc2ccc(Sc3ccccc3)cc2[nH]1 [Fenbendazole, reference compound]	most promising	–
COc1ccc(C[C@H]2NC[C@H](O)[C@H]2OC(C)=O)cc1 [Anisomycin, reference compound]	most promising	–
CC(=O)Oc1cc(OC(C)=O)c2c(c1)O[C@H](c1ccc(OC(C)=O)c(OC(C)=O)c1)[C@H](OC(C)=O)C2 [epicatechin pentaacetate, Epicatechin pentaacetate]	no effect	–
COc1ccc(/C=C/c2cc(O)cc(O)c2)cc1 [Resveratol 4-methyl ether]	no effect	–
COc1ccc2c(c1)OCc1c-2oc2cc(OC)ccc12 [Dehydrovariabilin]	most promising	–
CCCC(=O)Nc1ncnc2c1ncn2[C@@H]1O[C@@H]2COP(=O)(O)O[C@H]2[C@H]1OC(=O)CCC [Db-cAMP]	–	increase of Arginase I protein (Arginase I protein [2]; previously shown, Neuron 2002): 3 fold; Arginase I up-regulation (Arginase I protein [2]; shown previously, 2002): up-regulated
O=C(/C=C/c1ccc(O)c(O)c1)OCCc1ccccc1 [CAPE, Phenethyl caffeate]	no effect	–
Cc1c(OCC(F)(F)F)ccnc1C[S+]([O-])c1nc2ccccc2[nH]1 (stereo not shown) [Lanzoprazole, Lansoprazole, reference compound]	–	ability to overcome inhibition by MAG (neurite outgrowth) [3]: overcome inhibition by MAG completely; Arginase I protein level (Arginase I protein [4]): up-regulated
O=c1c(-c2ccc(O)cc2)coc2cc(O)ccc12 [Daidzein]	no effect	ability to overcome inhibition by MAG (neurite outgrowth) [3]: overcome inhibition by MAG completely; Arginase I protein level (Arginase I protein [4]): up-regulated
Oc1cc(O)cc(/C=C/c2ccccc2)c1 [Pinosylvin]	most promising	–
